Reference: ChEMBL document CHEMBL4507268 (2021)
Activity calls are given as the source filed them. The rule behind the calls is not given here.

What was measured:
[1] = target: Casein kinase II subunit alpha (Homo sapiens) (UniProt P68400); conditions: Compound concentration 1000.0 nM
[2] = target: Mitogen-activated protein kinase kinase kinase kinase 2 (Homo sapiens) (UniProt Q12851); conditions: Compound concentration 1000.0 nM
[3] = target: Serine/threonine-protein kinase SBK1 (Homo sapiens) (UniProt Q52WX2); conditions: Compound concentration 1000.0 nM
Sequence of Serine/threonine-protein kinase SBK1 (Homo sapiens) (Q52WX2 whole entry): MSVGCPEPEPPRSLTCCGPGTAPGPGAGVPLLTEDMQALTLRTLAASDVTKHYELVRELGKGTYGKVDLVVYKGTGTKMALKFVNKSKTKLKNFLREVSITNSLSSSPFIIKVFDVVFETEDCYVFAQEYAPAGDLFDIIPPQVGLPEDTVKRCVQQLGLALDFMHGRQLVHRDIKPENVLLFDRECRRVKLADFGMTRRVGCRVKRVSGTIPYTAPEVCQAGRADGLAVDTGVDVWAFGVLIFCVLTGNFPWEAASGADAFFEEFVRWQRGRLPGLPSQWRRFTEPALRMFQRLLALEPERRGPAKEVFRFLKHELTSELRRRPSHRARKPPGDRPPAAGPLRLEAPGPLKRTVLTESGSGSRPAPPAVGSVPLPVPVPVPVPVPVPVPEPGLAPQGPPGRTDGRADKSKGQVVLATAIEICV

[4] = target: Activated CDC42 kinase 1 (Homo sapiens) (UniProt Q07912); conditions: Compound concentration 1000.0 nM
Sequence of Activated CDC42 kinase 1 (Homo sapiens) (Q07912 whole entry, looked up, canonical isoform): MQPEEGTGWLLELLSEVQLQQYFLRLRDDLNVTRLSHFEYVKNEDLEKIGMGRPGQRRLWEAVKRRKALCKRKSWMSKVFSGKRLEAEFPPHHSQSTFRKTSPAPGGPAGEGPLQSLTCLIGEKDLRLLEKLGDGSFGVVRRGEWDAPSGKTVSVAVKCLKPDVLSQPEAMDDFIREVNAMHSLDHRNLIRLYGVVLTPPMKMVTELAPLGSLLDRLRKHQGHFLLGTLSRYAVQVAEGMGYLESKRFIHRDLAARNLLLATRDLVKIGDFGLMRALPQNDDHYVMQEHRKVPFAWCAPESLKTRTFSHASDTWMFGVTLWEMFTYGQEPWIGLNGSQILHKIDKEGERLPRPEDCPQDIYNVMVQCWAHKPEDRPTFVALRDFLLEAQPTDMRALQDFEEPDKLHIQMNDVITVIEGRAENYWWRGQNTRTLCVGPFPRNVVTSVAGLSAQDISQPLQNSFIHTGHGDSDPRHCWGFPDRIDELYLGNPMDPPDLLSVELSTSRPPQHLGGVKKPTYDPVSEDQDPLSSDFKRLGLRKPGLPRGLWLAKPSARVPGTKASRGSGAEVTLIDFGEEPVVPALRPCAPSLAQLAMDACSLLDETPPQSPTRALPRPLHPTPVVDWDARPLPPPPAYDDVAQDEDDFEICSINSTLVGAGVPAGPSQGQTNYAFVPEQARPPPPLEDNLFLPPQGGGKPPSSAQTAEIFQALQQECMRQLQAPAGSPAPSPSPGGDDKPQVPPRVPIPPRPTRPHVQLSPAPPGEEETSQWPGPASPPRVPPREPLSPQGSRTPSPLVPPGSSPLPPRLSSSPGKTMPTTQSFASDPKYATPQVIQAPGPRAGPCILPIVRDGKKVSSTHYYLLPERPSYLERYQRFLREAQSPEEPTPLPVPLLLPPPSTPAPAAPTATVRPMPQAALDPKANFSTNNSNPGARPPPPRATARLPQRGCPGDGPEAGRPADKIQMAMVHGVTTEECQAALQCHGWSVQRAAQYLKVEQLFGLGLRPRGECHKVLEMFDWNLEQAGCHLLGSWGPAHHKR

[5] = tested on: Phosphatidylinositol 4,5-bisphosphate 3-kinase catalytic subunit alpha isoform (Homo sapiens), P42336 [H1047L]; conditions: Compound concentration 1000.0 nM
[6] = target: T1, Aurora kinase C (Homo sapiens) (UniProt Q9UQB9); conditions: Compound concentration 1000.0 nM
T1 sequence (whole entry): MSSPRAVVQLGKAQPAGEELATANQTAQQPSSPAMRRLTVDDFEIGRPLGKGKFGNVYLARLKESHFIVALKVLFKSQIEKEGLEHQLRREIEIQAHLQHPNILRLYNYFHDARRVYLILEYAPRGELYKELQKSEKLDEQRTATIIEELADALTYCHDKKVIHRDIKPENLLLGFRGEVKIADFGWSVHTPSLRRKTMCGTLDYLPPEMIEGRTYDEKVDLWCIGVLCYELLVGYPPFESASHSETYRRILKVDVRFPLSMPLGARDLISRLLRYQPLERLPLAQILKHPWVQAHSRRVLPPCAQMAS

[7] = target: Serine/threonine-protein kinase Nek6 (Homo sapiens) (UniProt Q9HC98); conditions: Compound concentration 1000.0 nM
Sequence of Serine/threonine-protein kinase Nek6 (Homo sapiens) (Q9HC98 whole entry): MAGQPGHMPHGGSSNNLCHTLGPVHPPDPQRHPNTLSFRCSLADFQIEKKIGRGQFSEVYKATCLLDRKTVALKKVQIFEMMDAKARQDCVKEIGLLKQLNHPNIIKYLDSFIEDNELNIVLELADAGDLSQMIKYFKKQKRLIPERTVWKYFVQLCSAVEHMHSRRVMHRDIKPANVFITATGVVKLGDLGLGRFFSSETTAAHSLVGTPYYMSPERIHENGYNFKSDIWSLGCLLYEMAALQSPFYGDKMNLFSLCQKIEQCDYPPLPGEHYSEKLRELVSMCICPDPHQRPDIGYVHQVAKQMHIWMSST

[8] = tested on: Epidermal growth factor receptor (Homo sapiens), P00533 [T790M]; conditions: Compound concentration 1000.0 nM
[9] = target: Serine/threonine-protein kinase 24 (Homo sapiens) (UniProt Q9Y6E0); conditions: Compound concentration 1000.0 nM
[10] = target: T2, Phosphorylase b kinase regulatory subunit alpha, liver isoform (Homo sapiens) (UniProt P46019); conditions: Compound concentration 1000.0 nM
T2 sequence (whole entry): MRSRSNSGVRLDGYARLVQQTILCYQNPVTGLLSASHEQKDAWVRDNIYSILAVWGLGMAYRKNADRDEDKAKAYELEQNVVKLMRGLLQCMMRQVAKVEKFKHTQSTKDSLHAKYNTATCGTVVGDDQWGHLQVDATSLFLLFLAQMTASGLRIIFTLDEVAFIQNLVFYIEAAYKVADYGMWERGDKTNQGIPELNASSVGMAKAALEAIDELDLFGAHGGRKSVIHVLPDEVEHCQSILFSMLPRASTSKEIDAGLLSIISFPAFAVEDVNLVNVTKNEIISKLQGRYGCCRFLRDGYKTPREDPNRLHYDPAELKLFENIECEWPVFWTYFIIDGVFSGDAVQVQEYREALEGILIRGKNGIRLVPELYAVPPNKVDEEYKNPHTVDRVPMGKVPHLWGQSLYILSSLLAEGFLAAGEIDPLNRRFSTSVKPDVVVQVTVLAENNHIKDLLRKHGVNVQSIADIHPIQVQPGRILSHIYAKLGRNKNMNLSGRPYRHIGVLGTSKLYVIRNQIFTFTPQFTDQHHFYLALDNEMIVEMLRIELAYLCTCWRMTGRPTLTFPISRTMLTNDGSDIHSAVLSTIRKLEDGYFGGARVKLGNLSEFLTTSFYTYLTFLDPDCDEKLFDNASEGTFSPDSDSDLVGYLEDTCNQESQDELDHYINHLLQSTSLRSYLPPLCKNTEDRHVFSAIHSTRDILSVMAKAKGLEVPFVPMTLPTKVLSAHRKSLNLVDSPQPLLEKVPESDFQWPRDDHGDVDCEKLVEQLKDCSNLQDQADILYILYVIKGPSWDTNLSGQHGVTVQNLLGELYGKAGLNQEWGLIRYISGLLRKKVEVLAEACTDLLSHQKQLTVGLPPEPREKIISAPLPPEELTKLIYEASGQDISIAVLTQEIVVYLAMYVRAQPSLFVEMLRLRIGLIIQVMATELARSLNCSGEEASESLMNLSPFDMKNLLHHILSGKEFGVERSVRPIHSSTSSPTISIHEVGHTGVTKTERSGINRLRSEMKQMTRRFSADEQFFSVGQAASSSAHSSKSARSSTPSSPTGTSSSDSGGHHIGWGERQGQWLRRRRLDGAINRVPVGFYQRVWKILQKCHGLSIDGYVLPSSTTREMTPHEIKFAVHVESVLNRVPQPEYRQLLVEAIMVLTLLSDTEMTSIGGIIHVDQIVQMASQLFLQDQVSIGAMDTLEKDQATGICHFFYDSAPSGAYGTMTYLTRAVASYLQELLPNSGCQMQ

[11] = target: Calcium/calmodulin-dependent protein kinase type 1B (Homo sapiens) (UniProt Q6P2M8); conditions: Compound concentration 1000.0 nM
Sequence of Calcium/calmodulin-dependent protein kinase type 1B (Homo sapiens) (Q6P2M8 whole entry): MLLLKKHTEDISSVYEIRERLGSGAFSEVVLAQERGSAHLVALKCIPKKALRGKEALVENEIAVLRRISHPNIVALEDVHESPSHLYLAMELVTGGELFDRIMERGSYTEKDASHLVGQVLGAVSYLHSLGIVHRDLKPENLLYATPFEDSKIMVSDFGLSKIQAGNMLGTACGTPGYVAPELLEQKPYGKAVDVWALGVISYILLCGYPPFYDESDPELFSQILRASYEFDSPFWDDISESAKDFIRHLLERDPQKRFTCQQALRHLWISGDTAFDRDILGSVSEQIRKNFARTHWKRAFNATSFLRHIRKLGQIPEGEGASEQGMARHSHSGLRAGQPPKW

[12] = target: Casein kinase II subunit alpha' (Homo sapiens) (UniProt P19784); conditions: Compound concentration 1000.0 nM
[13] = tested on: Phosphatidylinositol 4,5-bisphosphate 3-kinase catalytic subunit alpha isoform (Homo sapiens), P42336 [I800L]; conditions: Compound concentration 1000.0 nM
[14] = target: Death-associated protein kinase 1 (Homo sapiens) (UniProt P53355); conditions: Compound concentration 1000.0 nM
Sequence of Death-associated protein kinase 1 (Homo sapiens) (P53355 whole entry, looked up): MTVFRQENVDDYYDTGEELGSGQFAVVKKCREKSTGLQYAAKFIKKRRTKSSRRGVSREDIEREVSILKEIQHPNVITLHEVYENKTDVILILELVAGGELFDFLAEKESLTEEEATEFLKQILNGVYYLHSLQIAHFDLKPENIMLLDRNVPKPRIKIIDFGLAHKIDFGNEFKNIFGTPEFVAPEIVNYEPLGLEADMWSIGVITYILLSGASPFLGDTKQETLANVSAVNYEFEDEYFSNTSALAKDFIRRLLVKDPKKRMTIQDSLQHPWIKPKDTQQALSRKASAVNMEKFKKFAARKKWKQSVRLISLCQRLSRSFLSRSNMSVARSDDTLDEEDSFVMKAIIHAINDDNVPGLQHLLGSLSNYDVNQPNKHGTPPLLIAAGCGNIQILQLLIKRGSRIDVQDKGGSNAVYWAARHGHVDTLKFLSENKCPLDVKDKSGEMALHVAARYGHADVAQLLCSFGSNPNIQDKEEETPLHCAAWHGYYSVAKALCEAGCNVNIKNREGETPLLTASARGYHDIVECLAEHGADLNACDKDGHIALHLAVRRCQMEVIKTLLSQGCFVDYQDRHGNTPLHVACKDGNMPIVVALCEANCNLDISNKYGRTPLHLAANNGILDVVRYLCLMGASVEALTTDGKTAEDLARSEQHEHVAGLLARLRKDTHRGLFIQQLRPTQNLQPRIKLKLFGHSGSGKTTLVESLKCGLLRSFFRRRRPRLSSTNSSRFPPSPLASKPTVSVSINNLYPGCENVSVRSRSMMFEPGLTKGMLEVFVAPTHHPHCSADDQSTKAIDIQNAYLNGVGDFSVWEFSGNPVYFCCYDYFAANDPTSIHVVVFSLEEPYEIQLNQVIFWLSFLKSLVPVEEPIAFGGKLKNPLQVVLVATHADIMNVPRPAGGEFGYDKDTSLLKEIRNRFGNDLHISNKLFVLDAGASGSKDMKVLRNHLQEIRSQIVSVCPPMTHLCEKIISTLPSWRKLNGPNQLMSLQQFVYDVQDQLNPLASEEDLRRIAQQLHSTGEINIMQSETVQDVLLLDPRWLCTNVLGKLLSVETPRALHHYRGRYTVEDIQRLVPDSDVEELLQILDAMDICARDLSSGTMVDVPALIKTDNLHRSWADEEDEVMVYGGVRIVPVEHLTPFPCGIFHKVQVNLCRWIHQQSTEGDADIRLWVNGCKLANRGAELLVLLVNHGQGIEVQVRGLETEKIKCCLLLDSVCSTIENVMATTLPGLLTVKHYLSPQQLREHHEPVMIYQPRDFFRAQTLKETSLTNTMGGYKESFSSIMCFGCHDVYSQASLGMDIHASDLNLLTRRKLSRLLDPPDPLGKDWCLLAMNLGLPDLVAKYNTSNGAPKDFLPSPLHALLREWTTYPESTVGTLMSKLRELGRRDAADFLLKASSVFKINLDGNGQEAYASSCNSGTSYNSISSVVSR

[15] = target: Serine/threonine-protein kinase 38 (Homo sapiens) (UniProt Q15208); conditions: Compound concentration 1000.0 nM
[16] = tested on: Tyrosine-protein kinase ABL1 (Homo sapiens), P00519 [T315I]; conditions: Compound concentration 1000.0 nM
[17] = tested on: Phosphatidylinositol 4,5-bisphosphate 3-kinase catalytic subunit alpha isoform (Homo sapiens), P42336 [M1043I]; conditions: Compound concentration 1000.0 nM
[18] = target: Fibroblast growth factor receptor 4 (Homo sapiens) (UniProt P22455); conditions: Compound concentration 1000.0 nM
[19] = target: Solute carrier family 2, facilitated glucose transporter member 1 (Homo sapiens, UniProt P11166); assay: Cellular mechanistic assay: Inhibition of glucose uptake by Hela-MaTu cells
[20] = target: D(1B) dopamine receptor (Homo sapiens) (UniProt P21918); conditions: Compound concentration 10.0 uM

Sequence of Mitogen-activated protein kinase kinase kinase kinase 2 (Homo sapiens) (Q12851 whole entry): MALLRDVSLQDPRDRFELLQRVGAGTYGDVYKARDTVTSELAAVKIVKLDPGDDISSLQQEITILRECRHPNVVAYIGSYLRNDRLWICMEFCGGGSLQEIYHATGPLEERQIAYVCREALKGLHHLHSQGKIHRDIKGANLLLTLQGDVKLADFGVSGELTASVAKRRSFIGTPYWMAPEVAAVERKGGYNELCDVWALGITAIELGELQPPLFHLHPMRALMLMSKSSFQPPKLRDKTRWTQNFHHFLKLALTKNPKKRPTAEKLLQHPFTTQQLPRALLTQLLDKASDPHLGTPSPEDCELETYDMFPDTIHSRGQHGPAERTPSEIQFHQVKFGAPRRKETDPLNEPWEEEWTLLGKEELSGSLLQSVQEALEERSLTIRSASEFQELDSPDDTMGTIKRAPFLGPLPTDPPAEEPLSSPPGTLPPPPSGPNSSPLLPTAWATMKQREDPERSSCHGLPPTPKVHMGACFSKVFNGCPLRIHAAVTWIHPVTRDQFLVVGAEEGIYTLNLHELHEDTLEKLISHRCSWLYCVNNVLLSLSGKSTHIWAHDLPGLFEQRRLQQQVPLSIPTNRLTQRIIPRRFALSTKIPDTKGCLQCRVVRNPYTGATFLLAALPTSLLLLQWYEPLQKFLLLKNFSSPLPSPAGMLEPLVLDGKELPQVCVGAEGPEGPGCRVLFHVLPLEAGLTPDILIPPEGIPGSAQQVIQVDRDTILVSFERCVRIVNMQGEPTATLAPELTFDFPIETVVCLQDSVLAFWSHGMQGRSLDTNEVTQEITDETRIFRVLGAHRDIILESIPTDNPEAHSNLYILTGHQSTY
Sequence of Casein kinase II subunit alpha (Homo sapiens) (P68400 whole entry, looked up): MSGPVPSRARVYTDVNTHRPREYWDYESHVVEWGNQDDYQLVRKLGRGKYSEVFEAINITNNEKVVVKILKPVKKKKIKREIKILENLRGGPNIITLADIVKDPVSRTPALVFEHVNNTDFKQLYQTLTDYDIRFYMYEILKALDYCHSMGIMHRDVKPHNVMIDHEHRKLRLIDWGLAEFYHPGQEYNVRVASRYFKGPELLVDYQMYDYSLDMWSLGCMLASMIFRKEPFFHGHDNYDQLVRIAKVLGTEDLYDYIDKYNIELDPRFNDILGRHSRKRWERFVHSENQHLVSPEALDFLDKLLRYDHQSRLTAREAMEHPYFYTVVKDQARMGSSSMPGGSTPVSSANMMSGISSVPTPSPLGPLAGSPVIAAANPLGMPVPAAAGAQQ

SMILES	residual activity [1]	residual activity [2]	residual activity [3]	residual activity [4]	residual activity [5]	residual activity [6]	residual activity [7]	residual activity [8]	residual activity [9]	residual activity [10]	residual activity [11]	residual activity [12]	residual activity [13]	residual activity [14]	residual activity [15]	residual activity [16]	residual activity [17]	residual activity [18]	IC50 [19]	inhibition [20]
Cc1nc(C2CCN(C(=O)c3ccc(OC(F)(F)F)cc3N)CC2)c2ncc(N3CCN(C)CC3)cc2n1 [BAY-693]	99%	80%	40%	100%	87%	100%	100%	100%	97%	100%	100%	85%	96%	95%	94%	100%	96%	100%	6.4 µM (not active)	12.4%
CN1CCN(c2cnc3c(C4CCN(C(=O)c5ccc(OC(F)(F)F)cc5N)CC4)ncnc3c2)CC1 [BAY-885]	100%	82%	100%	100%	100%	67%	92%	84%	100%	100%	100%	93%	100%	100%	80%	100%	100%	100%	0.035 µM (active)	4.63%
